Measured values as given in patent publication US8691805B2, “Azetidinyl diamides as monoacylglycerol lipase inhibitors” (Janssen Pharmaceutica NV, priority 2009, dated 2014).

Assays:
[1] = test system: CFA-induced paw radiant heat hypersensitivity in rats; experiment: CFA-induced paw radiant heat hypersensitivity; format: in vivo; settings: rat, 30 mg/kg p.o., HPβCD, group mean values, last time point 180 or 300 min
Method: Each rat was placed in a test chamber on a warm glass surface and allowed to acclimate for approximately 10 min. A radiant thermal stimulus (beam of light) was then focused through the glass onto the plantar surface of each hind paw in turn. The thermal stimulus was automatically shut off by a photoelectric relay when the paw was moved or when the cut-off time was reached (20 sec for radiant heat at ˜5 amps). An initial (baseline) response latency to the thermal stimulus was recorded for each animal prior to the injection of complete Freund's adjuvant (CFA). 24 h following intraplantar CFA injection, the response latency of the animal to the thermal stimulus was then re-evaluated and compared to the animal's baseline response time. […] Post-compound treatment withdrawal latencies were assessed at fixed time intervals, typically 30, 60, 120, 180, and 300 min.
The percent reversal (% R) of hypersensitivity was calculated in one of two different ways: 1) using group mean values or 2) using individual animal values. […]
Method 1. For all compounds, the % R of hypersensitivity was calculated using the mean value for groups of animals at each time point according to the following formula: % reversal=[(group treatment response−group CFA response)/(group baseline response−group CFA response)]×100 Results are given for the maximum % reversal observed for each compound at any time point tested. […]

[2] = molecular target: T1, MGL in rat brain homogenate (Rattus norvegicus, UniProt Q8R431); experiment: 2-AG accumulation assay in rat brain homogenate; format: biochemical; settings: 2-AG accumulation as percent of vehicle; for Rat Brain 2AG % VehCntrl (%) @10 μM: compound 10 μM
T1 construct: one g rat brain was homogenized; from tissue; host or cells: rat brain homogenate
T1 sequence (Q8R431 1-303): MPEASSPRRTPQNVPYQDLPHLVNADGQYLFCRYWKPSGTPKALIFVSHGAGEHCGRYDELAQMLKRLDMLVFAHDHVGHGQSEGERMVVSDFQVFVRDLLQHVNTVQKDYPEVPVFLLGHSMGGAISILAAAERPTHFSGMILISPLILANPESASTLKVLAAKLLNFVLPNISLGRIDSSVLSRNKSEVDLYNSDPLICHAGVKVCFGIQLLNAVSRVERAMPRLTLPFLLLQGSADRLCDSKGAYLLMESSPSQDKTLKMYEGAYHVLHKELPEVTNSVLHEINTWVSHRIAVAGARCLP

[3] = test system: murine model of acute inflammation; settings: Comelli et al. 2007; cited from earlier work
mutant MGL = molecular target: T2, mutant MGL (Homo sapiens, UniProt Q99685, L169S/L176S); experiment: MGL ThermoFluor assay - mutant; settings: read-out: MGL mutant ThermoFluor Kd, ThermoFluor thermal shift
T2 sequence (Q99685 1-303 L169S/L176S): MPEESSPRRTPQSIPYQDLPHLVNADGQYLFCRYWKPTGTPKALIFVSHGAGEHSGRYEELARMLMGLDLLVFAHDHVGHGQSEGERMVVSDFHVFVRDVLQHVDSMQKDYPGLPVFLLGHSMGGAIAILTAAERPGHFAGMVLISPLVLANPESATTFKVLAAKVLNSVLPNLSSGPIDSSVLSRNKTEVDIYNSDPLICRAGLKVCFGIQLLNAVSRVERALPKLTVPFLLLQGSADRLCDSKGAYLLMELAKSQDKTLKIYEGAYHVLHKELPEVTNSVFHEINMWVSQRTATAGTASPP
Method: The ThermoFluor (TF) assay is a 384-well plate-based binding assay that measures thermal stability of proteins^1,2. […] TF dye used in all experiments was 1,8-ANS (Invitrogen: A-47). Final TF assay conditions used for MGL studies were 0.07 mg/ml of mutant MGL, 100 μM ANS, 200 mM NaCl, 0.001% Tween-20 in 50 mM PIPES (pH=7.0).
Screening compound plates contained 100% DMSO compound solutions at a single concentration. […] Columns 12 and 24 were used as DMSO reference and contained no compound. […] Following compound dispension, protein and dye solutions were added to achieve the final assay volume of 3 μL.
Bar-coded assay plates were robotically loaded onto a thermostatically controlled PCR-type thermal block and then heated from 40 to 90° C. degrees at a ramp-rate of 1° C./min for all experiments. Fluorescence was measured by continuous illumination with UV light (Hamamatsu LC6), supplied via fiber optics and filtered through a band-pass filter (380-400 nm; >6 OD cutoff). Fluorescence emission of the entire 384-well plate was detected by measuring light intensity using a CCD camera (Sensys, Roper Scientific) filtered to detect 500±25 nm, resulting in simultaneous and independent readings of all 384 wells. […]

| SMILES | Method 1: peak % reversal [1] | Rat Brain 2AG % VehCntrl (%) @10 μM [2] | further results |
| --- | --- | --- | --- |
| O=C(c1ccc(-c2cccc(C(F)(F)F)c2)c(Cl)c1)N1CC(N2CCN(C(=O)c3cscn3)CC2)C1 [Cpd 1102] | 38% | – | – |
| COc1ccc(-c2ccc(C(=O)N3CC(N4CCN(C(=O)c5nccs5)CC4)C3)cc2)cc1C=O [Cpd 216, 4-Methoxy-4′-({3-[(1,3-thiazol-2-ylcarbonyl)piperazin-1-yl]azetidin-1-yl}carbonyl)biphenyl-3-carbaldehyde] | – | 625% | – |
| O=C(Nc1cccc(-c2ccccc2)c1)OC1CCCCC1 [URB602] | – | – | antinociceptive effect [3]: showed an antinociceptive effect |
| O=C(c1ccc(-c2ccc(O)cc2)cc1)N1CC(N2CCN(C(=O)c3nccs3)CC2)C1 [Cpd 211, 4′-({3-[(1,3-Thiazol-2-ylcarbonyl)piperazin-1-yl]azetidin-1-yl}carbonyl)biphenyl-4-ol] | – | 725% | – |
| O=C(c1ccc2c(ccn2-c2ccc(C(F)(F)F)cc2)c1)N1CC(N2CCN(C(=O)c3cscn3)CC2)C1 [Cpd 1359, 5-({3-[4-(1,3-Thiazol-4-ylcarbonyl)piperazin-1-yl]azetidin-1-yl}carbonyl)-1-[4-(trifruoromethyl)phenyl]-1 H-indole] | 5.1% | – | – |
| O=C(c1nccs1)N1CCN(C2CN(C(=O)[C@@H]3C[C@H]3c3ccccc3Cl)C2)CC1 (racemic) [Cpd 642] | – | – | Rat Brain 2AG % VehCntrl (%) @1 μM ([2]; compound 1 μM): 170%; Kd (mutant MGL): 499 nM |
